Laboratory results taken from patent EP4592290A1, “CARBONYL FUSED HETEROCYCLIC DERIVATIVE USED AS UBIQUITIN-SPECIFIC PROTEASE INHIBITOR” (Chia Tai Tianqing Pharmaceutical Group Co., Ltd., priority 2022, dated 2024).

Assays:
[1] = tested on: MDA-MB-436 cells; experiment: Assay on inhibitory activity for MDA-MB-436 cell proliferation (CCK-8); type: cell-based; details: Homo sapiens, 168 h, 7 days of incubation, CCK-8, absorbance at 450 nm
Experimental: MDA-MB-436 cells in a good growth state were collected into a centrifuge tube, adjusted to a cell density of 10^4 cells/mL, and seeded in a 96-well plate (100 µL/well), and the plate was incubated overnight in a cell incubator. Compounds were added using a nanoliter pipettor, such that the final concentrations of the compounds were 1000 nM-0.457 nM. The wells were set in duplicate, and a control well was set. After another 7 days of incubation in the cell incubator, the detection reagent CCK-8 (manufacturer: Dojindo Laboratories; 10 µL/well) was added. After 2 h of incubation in the cell incubator, absorbance values were detected at 450 nm using an Envision microplate reader, the four-parameter analysis was performed, the dose-response curves were fit, and IC50 was calculated. The experimental results are shown in Table 1, where A represents 0 nM < IC50 ≤ 50 nM; B represents 50 nM < IC50 ≤ 100 nM; C represents 100 nM < IC50 ≤ 1000 nM; and D represents 1000 nM < IC50. Table 1. Inhibitory activity for MDA-MB-436 cell proliferation

[2] = target: USP1/UAF1 (Homo sapiens, UniProt O94782); experiment: Assay on USP1/UAF1 enzymatic inhibitory activity (Ub-Rhodamine); type: biochemical; details: USP1/UAF1 protein 10 nM, Ub-Rhodamine 300 nM, 30 min pre-incubation, 90 min reaction
USP1/UAF1, sequence (O94782 whole entry): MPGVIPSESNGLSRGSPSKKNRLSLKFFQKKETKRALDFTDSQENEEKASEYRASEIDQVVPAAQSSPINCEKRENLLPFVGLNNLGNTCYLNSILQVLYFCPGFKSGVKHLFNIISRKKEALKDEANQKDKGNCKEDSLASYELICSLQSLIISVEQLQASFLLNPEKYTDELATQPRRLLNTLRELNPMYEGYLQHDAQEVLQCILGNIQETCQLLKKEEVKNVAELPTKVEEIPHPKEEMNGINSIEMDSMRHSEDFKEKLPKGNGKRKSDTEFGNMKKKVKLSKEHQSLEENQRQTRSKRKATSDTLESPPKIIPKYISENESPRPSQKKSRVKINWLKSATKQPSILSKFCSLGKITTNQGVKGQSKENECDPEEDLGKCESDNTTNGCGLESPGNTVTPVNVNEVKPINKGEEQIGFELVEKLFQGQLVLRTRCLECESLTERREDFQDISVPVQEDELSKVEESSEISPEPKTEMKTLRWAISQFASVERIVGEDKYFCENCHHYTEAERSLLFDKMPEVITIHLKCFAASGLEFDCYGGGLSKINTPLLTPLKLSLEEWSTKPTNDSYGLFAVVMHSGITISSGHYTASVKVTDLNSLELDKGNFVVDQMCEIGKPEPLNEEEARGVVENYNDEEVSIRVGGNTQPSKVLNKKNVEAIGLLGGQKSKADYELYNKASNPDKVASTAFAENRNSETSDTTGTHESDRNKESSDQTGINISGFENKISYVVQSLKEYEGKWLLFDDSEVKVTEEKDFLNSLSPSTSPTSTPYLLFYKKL
USP1/UAF1, sequence (Q8TAF3 whole entry partner): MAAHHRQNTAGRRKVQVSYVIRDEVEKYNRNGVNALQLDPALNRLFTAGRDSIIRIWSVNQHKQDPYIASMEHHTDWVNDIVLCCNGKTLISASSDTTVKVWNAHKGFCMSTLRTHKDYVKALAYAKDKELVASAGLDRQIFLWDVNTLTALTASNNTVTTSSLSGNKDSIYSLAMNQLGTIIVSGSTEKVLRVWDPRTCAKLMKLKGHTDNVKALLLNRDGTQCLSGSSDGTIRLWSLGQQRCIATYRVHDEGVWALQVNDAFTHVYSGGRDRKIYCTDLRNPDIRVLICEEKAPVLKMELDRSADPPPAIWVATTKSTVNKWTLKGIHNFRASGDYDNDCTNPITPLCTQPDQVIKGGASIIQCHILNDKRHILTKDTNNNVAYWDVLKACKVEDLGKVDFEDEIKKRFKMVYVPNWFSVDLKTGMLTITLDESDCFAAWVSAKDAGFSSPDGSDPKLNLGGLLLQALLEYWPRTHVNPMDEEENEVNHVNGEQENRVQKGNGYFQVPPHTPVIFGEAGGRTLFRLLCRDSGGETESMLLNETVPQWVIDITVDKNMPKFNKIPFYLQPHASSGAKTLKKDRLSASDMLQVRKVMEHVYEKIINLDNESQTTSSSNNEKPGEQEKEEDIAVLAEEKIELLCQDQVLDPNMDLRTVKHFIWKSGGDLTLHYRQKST
Experimental: A USP1/UAF1 protein solution (with a concentration of 10 nM) was added to assay wells at 10 µL/well, and different compounds dissolved in DMSO were separately added to the assay wells using a nanoliter pipettor, such that the final concentrations of the compounds were 1000 nM-0.24 nM. The wells were set in duplicate, and a control well was set. After incubation of the system described above at room temperature for 30 min, Ub-Rhodamine (with a concentration of 300 nM) was added to the assay wells at 10 µL/well. The mixtures were reacted at room temperature for 90 min, and then the plate was read using a PerkinElmer Envision multifunctional microplate reader (Ex. 490 nm/Em. 520 nm). IC50 was calculated by four-parameter fitting.

Structure (SMILES)	IC50 [1] [nM]	IC50 [2] [nM]
COc1ncnc(C2CC2)c1-c1ncc2c(c1F)n(Cc1ccc(-c3nc(C(F)(F)F)cn3C)cc1)c(=O)n2C [Example 3]	< 50	< 50
[2H]C([2H])([2H])n1c(=O)n(Cc2ccc(-n3nc(C(F)(F)F)cc3C)cc2)c2c(F)c(-c3c(OC)ncnc3C3CC3)ncc21 [Example 15]	50 to 100	< 50
[2H]C([2H])([2H])n1c(=O)n(Cc2ccc(-c3nc(C(F)(F)F)cn3C(C)C)cc2)c2c(F)c(-c3c(OC)ncnc3C3CC3)ncc21 [Example 16]	< 50	< 50
[2H]C([2H])([2H])n1c(=O)n(Cc2ccc(-n3nc(C(C)(F)F)cc3C)cc2)c2c(F)c(-c3c(OC)ncnc3C3CC3)ncc21 [Example 17]	50 to 100	50 to 100
